Laboratory results from the NIST ThermoML archive (doi:10.1016/j.tca.2016.06.014).
Where “and” joins values, the source holds several entries; their conditions need not be identical. Identical values can stand only once. Numbers after ± are expanded uncertainties.

Tests used:
[1] = for vapor or sublimation pressure: Transpiration method; for Normal melting temperature: DTA; for Triple point temperature: DSC
[2] = Molar enthalpy of transition or fusion; conditions: DSC

BrC1CCCCC1 [bromocyclohexane]
[1], Liquid
Conditions | vapor or sublimation pressure [kPa]
277.5 K | 0.105 ± 0.0066
280 K | 0.1251 ± 0.0078
281.7 K | 0.1422 ± 0.009
283.6 K | 0.1639 ± 0.01
285.5 K | 0.1872 ± 0.012
287.4 K | 0.21 ± 0.013
288.8 K | 0.2298 ± 0.015
289.3 K | 0.2446 ± 0.015
291.3 K | 0.2704 ± 0.017
293.2 K | 0.3182 ± 0.02
295.3 K | 0.3668 ± 0.023
297.3 K | 0.4161 ± 0.026

ClC1C2CC3CC(C2)CC1C3 (stereo unspecified) [2-chlorotricyclo[3.3.1.1(3,7)]decane]
[1], Crystal
Conditions | vapor or sublimation pressure
298.6 K | 0.00623 ± 0.00047 kPa
301.6 K | 0.0076 ± 0.00049 kPa
303.5 K | 0.00901 ± 0.00054 kPa
308.4 K | 0.01307 ± 0.00078 kPa
310.3 K | 0.01568 ± 0.001 kPa
313.3 K | 0.0191 ± 0.0012 kPa
313.5 K | 0.01927 ± 0.0012 kPa and 0.01999 ± 0.0013 kPa and 0.01925 ± 0.0012 kPa
315.3 K | 0.0223 ± 0.0015 kPa
318.2 K | 0.02668 ± 0.0017 kPa
323.5 K | 0.03885 ± 0.0025 kPa
328.2 K | 0.05574 ± 0.0035 kPa
333.2 K | 0.07877 ± 0.005 kPa
335.7 K | 0.08972 ± 0.0055 kPa
338.2 K | 0.106 ± 0.0067 kPa

Crystal
Conditions | Molar enthalpy of transition or fusion [kcal/mol] | Normal melting temperature [°C]
[1] | – | 195.0 ± 1.1
[2] | 1.51 ± 0.239 | –

ClC12CC3CC(CC(C3)C1)C2 [1-chlorotricyclo[3.3.1.1(3,7)]decane]
[1], Crystal
Conditions | vapor or sublimation pressure
298.5 K | 0.01172 ± 0.00075 kPa
301 K | 0.01402 ± 0.00097 kPa
303.2 K | 0.01766 ± 0.0011 kPa
303.4 K | 0.01712 ± 0.001 kPa
306.3 K | 0.02255 ± 0.0015 kPa
308.3 K | 0.02567 ± 0.0016 kPa
308.4 K | 0.02653 ± 0.0017 kPa
311.4 K | 0.03389 ± 0.0022 kPa
313.3 K | 0.0365 ± 0.0023 kPa
316.2 K | 0.04719 ± 0.003 kPa
318.2 K | 0.05137 ± 0.0033 kPa and 0.05598 ± 0.0036 kPa
323.2 K | 0.07923 ± 0.005 kPa
323.3 K | 0.0762 ± 0.0048 kPa
326.2 K | 0.09623 ± 0.006 kPa
328.2 K | 0.1033 ± 0.0064 kPa and 0.11 ± 0.0069 kPa
330.7 K | 0.1198 ± 0.0075 kPa
333.2 K | 0.1492 ± 0.0094 kPa
333.4 K | 0.1437 ± 0.009 kPa

Crystal
Conditions | Molar enthalpy of transition or fusion [kcal/mol] | Normal melting temperature [°C]
[1] | – | 165.8 ± 1.1
[2] | 1.24 ± 0.239 | –

BrC1C2CC3CC(C2)CC1C3 (stereo unspecified) [2-bromoadamantane]
[1], Crystal
Conditions | vapor or sublimation pressure [kPa]
298.5 K | 0.00329 ± 0.00025
300.9 K | 0.0039 ± 0.00028
303.4 K | 0.00475 ± 0.00034
308.4 K | 0.00703 ± 0.00045
313.3 K | 0.01089 ± 0.0007
318.2 K | 0.01506 ± 0.00096
323.2 K | 0.02279 ± 0.0014
328.2 K | 0.03107 ± 0.002
333.2 K | 0.04422 ± 0.0028
338.2 K | 0.06437 ± 0.004
340.1 K | 0.07403 ± 0.0046
343.1 K | 0.08635 ± 0.0053

Crystal
Conditions | Molar enthalpy of transition or fusion [kcal/mol] | Normal melting temperature [°C]
[1] | – | 141.6 ± 1.1
[2] | 1 ± 0.239 | –

BrC12CC3CC(CC(C3)C1)C2 [1-bromotricyclo[3.3.1.1(3,7)]decane]
vapor or sublimation pressure [kPa], [1]
Conditions | 298.2 K | 303.2 K | 313.2 K | 317.3 K | 320.2 K | 323.2 K | 325.7 K | 328.2 K | 333.1 K | 337.1 K
Crystal 1 | – | – | 0.0166 ± 0.0011 | 0.02262 ± 0.0014 | 0.02932 ± 0.0019 | 0.03504 ± 0.0022 | 0.04244 ± 0.0027 | 0.04954 ± 0.0031 | 0.06913 ± 0.0043 | 0.08922 ± 0.0056
Crystal 2 | 0.00419 ± 0.00028 | 0.00677 ± 0.00043 | – | – | – | – | – | – | – | –

Conditions | Molar enthalpy of transition or fusion, [2] [kcal/mol] | Triple point temperature, [1] [K]
Crystal 1 | 1.15 ± 0.239 | 390.9 ± 1.2
Crystal 2 | 1.77 ± 0.239 | 311.6 ± 1.2
